Test results reported in patent US20240199647A1, “ANTI-VIRAL COMPOUNDS” (Aligos Therapeutics, Inc., priority 2022, published 2024).
Read-outs that look alike come from different tables or passages of the source.

Columns and labels:
[1] = Cytotoxicity in HeLa cells without addition of OC43 virus (in parallel); settings: human, HeLa cells, without OC43 virus
[2] = in vitro; settings: human
[3] = test system: SARS-CoV-2 B.1.1.7 lineage; assay: microbe, parasite or virus in culture; assay type: cell-based; settings: Severe acute respiratory syndrome coronavirus 2, Table C, SARS-CoV-2 B.1.1.7 in A549-dual_ACE2_TMPRSS2 cells, read-out: A549-dual_ACE2_TMPRSS2 (EC50)
[4] = target: SARS-Cov-2 3CLpro (Severe acute respiratory syndrome coronavirus 2, UniProt P0DTD1); assay: biochemical; settings: Table A, class symbols, read-out: SARS-Cov-2 (IC50)
[5] = test system: human beta-coronavirus OC43; assay: OC43 Coronavirus Assay in HeLa cells (antiviral, cytopathic effect, cell-titer-glo); assay type: cell-based; settings: Betacoronavirus 1, OC43, HeLa
[6] = Table B, OC43 coronavirus in HeLa cells, class symbols, read-out: EC50

## C[C@H](NC(=O)C(F)(F)F)C(=O)N(C)[C@@H](Cc1ccc(F)cc1)C(=O)N1C[C@@]2(C[C@H]1C#N)Oc1cccnc1NC2=O [Compound 181]
[1]
  CC50 at 6 days: > 10 µM
[2]
  CC50: > 1 µM
[3]; class symbols
  EC50: 0.1 to 1 µM
[4]
  IC50: < 0.02 µM
[5]; [6]
  EC50: 1 to 10 µM

## C[C@@H](OC(C)(C)C)[C@H](NC(=O)C(F)(F)F)C(=O)N(C)[C@@H](CC1CC1)C(=O)N1C[C@@]2(C[C@H]1C#N)Oc1cccnc1NC2=O [Compound 196]
[1]
  CC50 at 6 days: > 10 µM
[2]
  CC50: > 1 µM
[3]; class symbols
  EC50: 0.1 to 1 µM
[4]
  IC50: < 0.02 µM
[5]; [6]
  EC50: < 0.1 µM

## CN(C(=O)c1cc2c(F)cc(F)c(F)c2[nH]1)[C@@H](CC1CC1)C(=O)N1C[C@@]2(C[C@H]1C#N)Oc1cccc(F)c1NC2=O [Compound 97]
[1]
  CC50 at 6 days: > 10 µM
[2]
  CC50: > 1 µM
[3]; class symbols
  EC50: 0.1 to 1 µM
[4]
  IC50: < 0.02 µM
[5]; [6]
  EC50: < 0.1 µM

## CC(C)C[C@@H](C(=O)N1C[C@]2(C[C@H]1C#N)OC(=O)Nc1ccccc12)N(C)C(=O)c1cc2c(F)cc(F)cc2[nH]1 [Example 5, N—((S)-1-((4R,5'S)-5′-cyano-2-oxo-1,2-dihydrospiro[benzo[d][1,3]oxazine-4,3′-pyrrolidin]-1′-yl)-4-methyl-1-oxopentan-2-yl)-4,6-difluoro-N-methyl-1H-indole-2-carboxamide]
[1]
  CC50 at 6 days: > 10 µM
[2]
  CC50: > 1 µM
[3]; class symbols
  EC50: 1 to 10 µM
[4]
  IC50: 0.2 to 2 µM
[5]; Table B, OC43 coronavirus in HeLa cells, cells given as a bound, read-out: EC50
  EC50: > 1 µM

## CN(C(=O)[C@H](CC1CC1)NC(=O)C(F)(F)F)[C@@H](CC1CC1)C(=O)N1C[C@@]2(C[C@H]1C#N)Oc1cc(F)cc(C#N)c1NC2=O (single isomer, unassigned) [Example 35]
[1]
  CC50 at 6 days: > 10 µM
[2]
  CC50: > 1 µM
[3]; class symbols
  EC50: 0.1 to 1 µM
[4]
  IC50: 0.02 to 0.2 µM
[5]; [6]
  EC50: 1 to 10 µM

## CC(C)C[C@@H](C(=O)N1C[C@@]2(C[C@H]1C#N)Oc1c(F)cc(F)cc1NC2=O)N(C)C(=O)[C@H](C)NC(=O)C(F)(F)F [Compound 49]
[1]
  CC50 at 6 days: > 10 µM
[2]
  CC50: > 1 µM
[3]; class symbols
  EC50: 0.1 to 1 µM
[4]
  IC50: < 0.02 µM
[5]; [6]
  EC50: 0.1 to 1 µM

## CN(C(=O)[C@H]1CCN(C(=O)C(F)(F)F)C1)[C@@H](CC1CC1)C(=O)N1C[C@@]2(C[C@H]1C#N)Oc1cc(F)cc(F)c1NC2=O [Compound 129]
[1]
  CC50 at 6 days: > 10 µM
[2]
  CC50: > 1 µM
[3]; class symbols
  EC50: 0.1 to 1 µM
[4]
  IC50: 0.2 to 2 µM
[5]
  EC50: > 10 µM

## COc1ccc(C[C@@H](NC(=O)C(F)(F)F)C(=O)N(C)[C@@H](CC2CC2)C(=O)N2C[C@@]3(C[C@H]2C#N)Oc2cccnc2NC3=O)cc1 [Compound 149]
[1]
  CC50 at 6 days: > 10 µM
[2]
  CC50: > 1 µM
[3]; class symbols
  EC50: < 0.1 µM
[4]
  IC50: < 0.02 µM
[5]; [6]
  EC50: < 0.1 µM

## CN(C(=O)[C@H](CC1CC1)NS(=O)(=O)c1ccc(F)cc1)[C@@H](CC1CC1)C(=O)N1C[C@@]2(C[C@H]1C#N)Oc1cccnc1NC2=O [Compound 197]
[1]
  CC50 at 6 days: > 10 µM
[2]
  CC50: > 1 µM
[3]; class symbols
  EC50: 0.1 to 1 µM
[4]
  IC50: < 0.02 µM
[5]; [6]
  EC50: < 0.1 µM

## C[C@@H](C(=O)N(C)[C@@H](CC1CC1)C(=O)N1C[C@@]2(C[C@H]1C#N)Oc1cccnc1NC2=O)n1cc(C2CC2)nn1 [Compound 155]
[1]
  CC50 at 6 days: > 10 µM
[2]
  CC50: > 1 µM
[3]; class symbols
  EC50: 0.1 to 1 µM
[4]
  IC50: 0.02 to 0.2 µM
[5]; [6]
  EC50: 0.1 to 1 µM

## CN(C(=O)[C@H](CC1CC1)NC(=O)C(F)(F)F)[C@@H](CC1CC1)C(=O)N1C[C@@]2(C[C@H]1C#N)Oc1ccccc1C1(CC1)NC2=O [Compound 113]
[1]
  CC50 at 6 days: > 10 µM
[2]
  CC50: > 1 µM
[3]; cells given as a bound
  EC50: > 1 µM
[4]
  IC50: 0.02 to 0.2 µM
[5]; [6]
  EC50: 0.1 to 1 µM

## C[C@H](NC(=O)C(F)(F)F)C(=O)N(C)[C@@H](CC1CC1)C(=O)N1C[C@@]2(C[C@H]1C#N)Oc1cc(F)cc(F)c1NC2=O [Example 37, (S)—N—((S)-1-((2R,5'S)-5′-cyano-5,7-difluoro-3-oxo-3,4-dihydrospiro[benzo[b][1,4]oxazine-2,3′-pyrrolidin]-1′-yl)-3-cyclopropyl-1-oxopropan-2-yl)-N-methyl-2-(2,2,2-trifluoroacetamido)propanamide]
[1]
  CC50 at 6 days: > 10 µM
[2]
  CC50: > 1 µM
[3]; class symbols
  EC50: 0.1 to 1 µM
[4]
  IC50: < 0.02 µM
[5]; [6]
  EC50: < 0.1 µM

## C[C@H](NC(=O)C(F)(F)F)C(=O)N(C)[C@@H](CC1CC1)C(=O)N1C[C@@]2(C[C@H]1C#N)Oc1ccccc1NC2=O [Compound 160]
[1]
  CC50 at 6 days: > 10 µM
[2]
  CC50: > 1 µM
[3]; class symbols
  EC50: < 0.1 µM
[4]
  IC50: < 0.02 µM
[5]; [6]
  EC50: < 0.1 µM

## CCOC[C@H](NC(=O)C(F)(F)F)C(=O)N(C)[C@@H](CC1CC1)C(=O)N1C[C@@]2(C[C@H]1C#N)Oc1cccnc1NC2=O [Compound 220]
[1]
  CC50 at 6 days: > 10 µM
[2]
  CC50: > 1 µM
[3]; class symbols
  EC50: 0.1 to 1 µM
[4]
  IC50: < 0.02 µM
[5]; [6]
  EC50: < 0.1 µM

## COC1CNC(=O)[C@]12C[C@@H](C#N)N(C(=O)[C@H](CC1CC1)N(C)C(=O)[C@H](CC1CC1)NC(=O)C(F)(F)F)C2 (stereo partly drawn) [Compound 225, (2S)—N-((2S)-1-((3S,5S)-3-cyano-9-methoxy-6-oxo-2,7-diazaspiro[4.4]nonan-2-yl)-3-cyclopropyl-1-oxopropan-2-yl)-3-cyclopropyl-N-methyl-2-(2,2,2-trifluoroacetamido)propanamide]
[1]
  CC50 at 6 days: > 10 µM
[2]
  CC50: > 1 µM
[3]; class symbols
  EC50: 0.1 to 1 µM
[4]
  IC50: 0.02 to 0.2 µM
[5]; [6]
  EC50: 0.1 to 1 µM

## CCN(C(=O)[C@H](C)NC(=O)C(F)(F)F)[C@@H](CC(C)C)C(=O)N1C[C@@]2(C[C@H]1C#N)Oc1cc(F)cc(F)c1NC2=O [Compound 106]
[1]
  CC50 at 6 days: > 10 µM
[2]
  CC50: > 1 µM
[3]; class symbols
  EC50: 0.1 to 1 µM
[4]
  IC50: < 0.02 µM
[5]; [6]
  EC50: 0.1 to 1 µM

## CC(C)[C@H](NC(=O)C(F)(F)F)C(=O)N(C)[C@@H](CC1CC1)C(=O)N1C[C@@]2(C[C@H]1C#N)Oc1cccnc1NC2=O [Compound 177]
[1]
  CC50 at 6 days: > 10 µM
[2]
  CC50: > 1 µM
[3]; class symbols
  EC50: 0.1 to 1 µM
[4]
  IC50: < 0.02 µM
[5]; [6]
  EC50: 0.1 to 1 µM

## CC(C)C[C@@H](C(=O)N1C[C@]2(C[C@H]1C#N)C(=O)Nc1cc(Br)nn12)N(C)C(=O)[C@H](C)NC(=O)C(F)(F)F [Compound 26, (2S)—N-[(2S)-1-[(3R,5'S)-6-bromo-5′-cyano-2-oxo-1H-spiro[pyrazolo[1,5-a]imidazole-3,3′-pyrrolidin]-1′-yl]-4-methyl-1-oxopentan-2-yl]-N-methyl-2-(2,2,2-trifluoroacetamido)propanamide]
[1]
  CC50 at 6 days: > 10 µM
[2]
  CC50: > 1 µM
[3]; cells given as a bound
  EC50: > 1 µM
[4]
  IC50: 0.02 to 0.2 µM
[5]; [6]
  EC50: 0.1 to 1 µM

## CN(C(=O)[C@H](CC(F)(F)F)NC(=O)C(F)(F)F)[C@@H](CC1CC1)C(=O)N1C[C@@]2(C[C@H]1C#N)Oc1cccnc1NC2=O [Compound 189]
[1]
  CC50 at 6 days: > 10 µM
[2]
  CC50: > 1 µM
[3]; class symbols
  EC50: 0.1 to 1 µM
[4]
  IC50: 0.02 to 0.2 µM
[5]; [6]
  EC50: 0.1 to 1 µM

## CC(C)C[C@@H](C(=O)N1C[C@@]2(C[C@H]1C#N)Oc1ccccc1NC2=O)N(C)C(=O)[C@H](C)NC(=O)C(F)(F)F [Example 1, (S)—N—((S)-1-((2R,5′S)-5′-cyano-3-oxo-3,4-dihydrospiro[benzo[b][1,4]oxazine-2,3′-pyrrolidin]-1′-yl)-4-methyl-1-oxopentan-2-yl)-N-methyl-2-(2,2,2-trifluoroacetamido)propanamide]
[1]
  CC50 at 6 days: > 10 µM
[2]
  CC50: > 1 µM
[3]; class symbols
  EC50: < 0.1 µM
[4]
  IC50: < 0.02 µM
[5]; [6]
  EC50: < 0.1 µM

## CN(C(=O)[C@H](CC1CC1)n1cc(-c2ccccc2)nn1)[C@@H](CC1CC1)C(=O)N1C[C@@]2(C[C@H]1C#N)Oc1cc(F)cc(F)c1NC2=O [Compound 114, (S)—N—((S)-1-((2R,5'S)-5′-cyano-5,7-difluoro-3-oxo-3,4-dihydrospiro[benzo[b][1,4]oxazine-2,3′-pyrrolidin]-1′-yl)-3-cyclopropyl-1-oxopropan-2-yl)-3-cyclopropyl-N-methyl-2-(4-phenyl-1H-1,2,3-triazol-1-yl)propenamide]
[1]
  CC50 at 6 days: > 10 µM
[2]
  CC50: > 1 µM
[3]; class symbols
  EC50: 0.1 to 1 µM
[4]
  IC50: < 0.02 µM
[5]; [6]
  EC50: 0.1 to 1 µM

## CN(C(=O)[C@@H]1CC[C@@H](c2ccccc2)N1)[C@@H](CC1CC1)C(=O)N1C[C@@]2(C[C@H]1C#N)Oc1cc(F)cc(F)c1NC2=O [Compound 111, (2S,5S)—N—((S)-1-((2R,5'S)-5′-cyano-5,7-difluoro-3-oxo-3,4-dihydrospiro[benzo[b][1,4]oxazine-2,3′-pyrrolidin]-1′-yl)-3-cyclopropyl-1-oxopropan-2-yl)-N-methyl-5-phenylpyrrolidine-2-carboxamide]
[1]
  CC50 at 6 days: > 10 µM
[2]
  CC50: > 1 µM
[3]; class symbols
  EC50: 0.1 to 1 µM
[4]
  IC50: < 0.02 µM
[5]; [6]
  EC50: 0.1 to 1 µM

## CN(C(=O)[C@H](CC1CC1)NC(=O)C1(F)CC1)[C@@H](CC1CC1)C(=O)N1C[C@@]2(CC1C#N)Oc1ccccc1CNC2=O (some centres unmarked) [Compound 176]
[1]
  CC50 at 6 days: > 10 µM
[2]
  CC50: > 1 µM
[3]; class symbols
  EC50: < 0.1 µM
[4]
  IC50: < 0.02 µM
[5]; [6]
  EC50: < 0.1 µM

## CN(C(=O)[C@H](CC(C)(C)C)NC(=O)C(F)(F)F)[C@@H](CC1CC1)C(=O)N1C[C@@]2(C[C@H]1C#N)Oc1cc(F)cc(F)c1NC2=O [Compound 89]
[1]
  CC50 at 6 days: > 10 µM
[2]
  CC50: > 1 µM
[3]; class symbols
  EC50: < 0.1 µM
[4]
  IC50: < 0.02 µM
[5]; [6]
  EC50: < 0.1 µM

## Cc1cn([C@@H](CC2CC2)C(=O)N(C)[C@@H](CC2CC2)C(=O)N2C[C@@]3(C[C@H]2C#N)Oc2cc(F)cc(F)c2NC3=O)nn1 [Compound 146]
[1]
  CC50 at 6 days: > 10 µM
[2]
  CC50: > 1 µM
[3]; class symbols
  EC50: 0.1 to 1 µM
[4]
  IC50: < 0.02 µM
[5]; [6]
  EC50: 0.1 to 1 µM
